Measured values reported in the CheMixHub ionic liquid set.

Test: xn = mol fraction of the nth substance listed
Conditions: 101 kPa, frequency 2 MHz

O=S(=O)([O-])C(F)(F)F.[Li+] + O=S(=O)([N-]S(=O)(=O)C(F)(F)F)C(F)(F)F.[Li+] + O
electrical conductivity [S/m]
Conditions	333 K	338.1 K	343 K	348.1 K	353 K	358.1 K
x2 = 0.001799, x1 = 0.0005943	–	1.57	1.67	1.77	1.86	1.942
x2 = 0.005377, x1 = 0.001799	–	3.913	4.16	4.39	4.601	4.79
x2 = 0.00893, x1 = 0.003054	–	5.77	6.124	6.46	6.76	7.029
x2 = 0.01246, x1 = 0.004127	–	7.28	7.725	8.142	8.518	8.846
x2 = 0.01596, x1 = 0.005377	–	8.517	9.039	9.522	9.96	10.33
x2 = 0.01944, x1 = 0.006623	–	9.534	10.12	10.7	11.13	11.5
x2 = 0.05129, x1 = 0.0177	–	12.8	13.6	14.26	14.9	15.41
x2 = 0.08265, x1 = 0.02921	–	11.3	12	12.6	13.18	13.7
x2 = 0.112, x1 = 0.04029	–	8.943	9.518	10.05	10.5	11
x2 = 0.1395, x1 = 0.05129	–	6.839	7.313	7.76	8.17	8.535
x2 = 0.1654, x1 = 0.06203	–	5.18	5.57	5.943	6.29	6.609
x2 = 0.1898, x1 = 0.07238	–	3.921	4.245	4.56	4.86	5.128
x2 = 0.2128, x1 = 0.08265	–	2.98	3.244	3.507	3.76	4
x2 = 0.2345, x1 = 0.0927	–	2.26	2.48	2.705	2.917	3.118
x2 = 0.2551, x1 = 0.1024	1.539	1.72	1.903	2.08	2.26	2.429
x2 = 0.2745, x1 = 0.112	1.16	1.303	1.45	1.6	1.744	1.88
